Source: ChEMBL document CHEMBL4004838, “Design and synthesis of novel phenyl -1, 4-beta-carboline-hybrid molecules as potential anticancer agents” (Eur J Med Chem, 2017)

Columns and labels:
Format in all cases: functional
HOP-62 = assay: Growth inhibition of human HOP62 cells assessed as cell growth at 10^-5 M incubated for 48 hrs by sulforhodamine B assay relative to control; conditions: HOP-62, 48 h, read-out: Activity
OVCAR-5 = assay: Growth inhibition of human OVCAR5 cells assessed as cell growth at 10^-5 M incubated for 48 hrs by sulforhodamine B assay relative to control; conditions: OVCAR-5, 48 h, read-out: Activity
SK-MEL-28 = assay: Growth inhibition of human SK-MEL-28 cells assessed as cell growth at 10^-5 M incubated for 48 hrs by sulforhodamine B assay relative to control; conditions: SK-MEL-28, 48 h, read-out: Activity
RXF 393 = assay: Growth inhibition of human RXF393 cells assessed as cell growth at 10^-5 M incubated for 48 hrs by sulforhodamine B assay relative to control; conditions: RXF 393, 48 h, read-out: Activity
SF-295 = assay: Growth inhibition of human SF295 cells assessed as cell growth at 10^-5 M incubated for 48 hrs by sulforhodamine B assay relative to control; conditions: SF-295, 48 h, read-out: Activity
SK-MEL-5 = assay: Growth inhibition of human SK-MEL-5 cells assessed as cell growth at 10^-5 M incubated for 48 hrs by sulforhodamine B assay relative to control; conditions: SK-MEL-5, 48 h, read-out: Activity
SK-MEL-2 = assay: Growth inhibition of human SK-MEL-2 cells assessed as cell growth at 10^-5 M incubated for 48 hrs by sulforhodamine B assay relative to control; conditions: SK-MEL-2, 48 h, read-out: Activity
UACC-62 = assay: Growth inhibition of human UACC62 cells assessed as cell growth at 10^-5 M incubated for 48 hrs by sulforhodamine B assay relative to control; conditions: UACC-62, 48 h, read-out: Activity
SF-539 = assay: Growth inhibition of human SF539 cells assessed as cell growth at 10^-5 M incubated for 48 hrs by sulforhodamine B assay relative to control; conditions: SF-539, 48 h, read-out: Activity
TK-10 = assay: Growth inhibition of human TK10 cells assessed as cell growth at 10^-5 M incubated for 48 hrs by sulforhodamine B assay relative to control; conditions: TK-10, 48 h, read-out: Activity
NCI-H460 = assay: Growth inhibition of human NCI-H460 cells assessed as cell growth at 10^-5 M incubated for 48 hrs by sulforhodamine B assay relative to control; conditions: NCI-H460, 48 h, read-out: Activity
MCF7 = assay: Growth inhibition of human MCF7 cells assessed as cell growth at 10^-5 M incubated for 48 hrs by sulforhodamine B assay relative to control; conditions: MCF7, 48 h, read-out: Activity
OVCAR-4 = assay: Growth inhibition of human OVCAR4 cells assessed as cell growth at 10^-5 M incubated for 48 hrs by sulforhodamine B assay relative to control; conditions: OVCAR-4, 48 h, read-out: Activity
LOX IMVI = assay: Growth inhibition of human LOXIMVI cells assessed as cell growth at 10^-5 M incubated for 48 hrs by sulforhodamine B assay relative to control; conditions: read-out: Activity
Hs-578T = assay: Growth inhibition of human Hs 578T cells assessed as cell growth at 10^-5 M incubated for 48 hrs by sulforhodamine B assay relative to control; conditions: read-out: Activity
T47D = assay: Growth inhibition of human T47D cells assessed as cell growth at 10^-5 M incubated for 48 hrs by sulforhodamine B assay relative to control; conditions: read-out: Activity
SF-268 = assay: Growth inhibition of human SF268 cells assessed as cell growth at 10^-5 M incubated for 48 hrs by sulforhodamine B assay relative to control; conditions: SF-268, 48 h, read-out: Activity
HCC 2998 = assay: Growth inhibition of human HCC2998 cells assessed as cell growth at 10^-5 M incubated for 48 hrs by sulforhodamine B assay relative to control; conditions: HCC 2998, 48 h, read-out: Activity
EKVX = assay: Growth inhibition of human EKVX cells assessed as cell growth at 10^-5 M incubated for 48 hrs by sulforhodamine B assay relative to control; conditions: read-out: Activity
SK-OV-3 = assay: Growth inhibition of human SKOV3 cells assessed as cell growth at 10^-5 M incubated for 48 hrs by sulforhodamine B assay relative to control; conditions: SK-OV-3, 48 h, read-out: Activity
K562 = assay: Growth inhibition of human K562 cells assessed as cell growth at 10^-5 M incubated for 48 hrs by sulforhodamine B assay relative to control; conditions: K562, 48 h, read-out: Activity
NCI-H23 = assay: Growth inhibition of human NCI-H23 cells assessed as cell growth at 10^-5 M incubated for 48 hrs by sulforhodamine B assay relative to control; conditions: NCI-H23, 48 h, read-out: Activity
UO-31 = assay: Growth inhibition of human UO31 cells assessed as cell growth at 10^-5 M incubated for 48 hrs by sulforhodamine B assay relative to control; conditions: UO-31, 48 h, read-out: Activity
HL-60(TB) = assay: Growth inhibition of human HL-60(TB) cells assessed as cell growth at 10^-5 M incubated for 48 hrs by sulforhodamine B assay relative to control; conditions: HL-60, 48 h, read-out: Activity
HOP-92 = assay: Growth inhibition of human HOP92 cells assessed as cell growth at 10^-5 M incubated for 48 hrs by sulforhodamine B assay relative to control; conditions: HOP-92, 48 h, read-out: Activity
CCRF-CEM = assay: Growth inhibition of human CCRF-CEM cells assessed as cell growth at 10^-5 M incubated for 48 hrs by sulforhodamine B assay relative to control; conditions: read-out: Activity
MDA-MB-231 = assay: Growth inhibition of human MDA-MB-231 cells assessed as cell growth at 10^-5 M incubated for 48 hrs by sulforhodamine B assay relative to control; conditions: MDA-MB-231, 48 h, read-out: Activity
DU-145 = assay: Growth inhibition of human DU145 cells assessed as cell growth at 10^-5 M incubated for 48 hrs by sulforhodamine B assay relative to control; conditions: DU-145, 48 h, read-out: Activity
A549 = assay: Growth inhibition of human A549/ATCC cells assessed as cell growth at 10^-5 M incubated for 48 hrs by sulforhodamine B assay relative to control; conditions: A549, 48 h, read-out: Activity
NCI-H226 = assay: Growth inhibition of human NCI-H226 cells assessed as cell growth at 10^-5 M incubated for 48 hrs by sulforhodamine B assay relative to control; conditions: NCI-H226, 48 h, read-out: Activity
OVCAR-3 = assay: Growth inhibition of human OVCAR3 cells assessed as cell growth at 10^-5 M incubated for 48 hrs by sulforhodamine B assay relative to control; conditions: OVCAR-3, 48 h, read-out: Activity
SR = assay: Growth inhibition of human SR cells assessed as cell growth at 10^-5 M incubated for 48 hrs by sulforhodamine B assay relative to control; conditions: read-out: Activity

`Cc1ccc(S(=O)(=O)N2CCc3c([nH]c4ccccc34)C2c2ccc(-c3nc4ccccc4[nH]3)cc2)cc1` (stereo unspecified) showed a growth at 10 µM (HOP-62) of 94.3%, a growth at 10 µM (OVCAR-5) of 78.7% and a growth at 10 µM (SK-MEL-28) of 86%. It also gave a growth at 10 µM (RXF 393) of 96.4%, a growth at 10 µM (SF-295) of 91.9% and a growth at 10 µM (SK-MEL-5) of 89.8%. For the same molecule, the growth at 10 µM (SK-MEL-2) was 81.6%, the growth at 10 µM (UACC-62) was 65% and the growth at 10 µM (SF-539) was 90.2%. For the same molecule, the growth at 10 µM (TK-10) was 98%, the growth at 10 µM (NCI-H460) was 93% and the growth at 10 µM (MCF7) was 92.4%. For the same molecule, the growth at 10 µM (OVCAR-4) was 85.8%, the growth at 10 µM (LOX IMVI) was 85.5% and the growth at 10 µM (Hs-578T) was 89.2%. For the same molecule, the growth at 10 µM (T47D) was 89.1%, the growth at 10 µM (SF-268) was 91.3% and the growth at 10 µM (HCC 2998) was 102%. The growth at 10 µM (EKVX) was 87.4%, the growth at 10 µM (SK-OV-3) was 88.5% and the growth at 10 µM (K562) was 106%. It also gave a growth at 10 µM (NCI-H23) of 85.7%, a growth at 10 µM (UO-31) of 66.7% and a growth at 10 µM (HL-60(TB)) of 105%. For the same molecule, the growth at 10 µM (HOP-92) was 102%, the growth at 10 µM (CCRF-CEM) was 106% and the growth at 10 µM (MDA-MB-231) was 73.4%. For the same molecule, the growth at 10 µM (DU-145) was 101%, the growth at 10 µM (A549) was 92.8% and the growth at 10 µM (NCI-H226) was 86.4%. For the same molecule, the growth at 10 µM (OVCAR-3) was 93.5% and the growth at 10 µM (SR) was 97.2%.

With `Cc1ccc(S(=O)(=O)N2CCc3c([nH]c4ccccc34)C2c2ccc(C=O)cc2)cc1` (stereo unspecified) the growth at 10 µM (HOP-62) was 94.3%, the growth at 10 µM (OVCAR-5) was 78.7% and the growth at 10 µM (SK-MEL-28) was 86%. The growth at 10 µM (RXF 393) was 96.4%, the growth at 10 µM (SF-295) was 91.9% and the growth at 10 µM (SK-MEL-5) was 89.8%. For the same molecule, the growth at 10 µM (SK-MEL-2) was 81.6%, the growth at 10 µM (UACC-62) was 65% and the growth at 10 µM (SF-539) was 90.2%. For the same molecule, the growth at 10 µM (TK-10) was 98%, the growth at 10 µM (NCI-H460) was 93% and the growth at 10 µM (MCF7) was 92.4%. The growth at 10 µM (OVCAR-4) was 85.8%, the growth at 10 µM (LOX IMVI) was 85.5% and the growth at 10 µM (Hs-578T) was 89.2%. The growth at 10 µM (T47D) was 89.1%, the growth at 10 µM (SF-268) was 91.3% and the growth at 10 µM (HCC 2998) was 102%. For the same molecule, the growth at 10 µM (EKVX) was 87.4%, the growth at 10 µM (SK-OV-3) was 88.5% and the growth at 10 µM (K562) was 106%. The growth at 10 µM (NCI-H23) was 85.7%, the growth at 10 µM (UO-31) was 66.7% and the growth at 10 µM (HL-60(TB)) was 105%. The growth at 10 µM (HOP-92) was 102%, the growth at 10 µM (CCRF-CEM) was 106% and the growth at 10 µM (MDA-MB-231) was 73.4%. The growth at 10 µM (DU-145) was 101%, the growth at 10 µM (A549) was 92.8% and the growth at 10 µM (NCI-H226) was 86.4%. The growth at 10 µM (OVCAR-3) was 93.5% and the growth at 10 µM (SR) was 97.2%.

`Cc1n[nH]c2c1C(c1ccc(C3NCCc4c3[nH]c3ccccc43)cc1)C(C#N)=C(N)O2` (stereo unspecified) gave a growth at 10 µM (HOP-62) of 83%, a growth at 10 µM (OVCAR-5) of 87.4% and a growth at 10 µM (SK-MEL-28) of 97.1%. For the same molecule, the growth at 10 µM (RXF 393) was 99.2%, the growth at 10 µM (SF-295) was 86.9% and the growth at 10 µM (SK-MEL-5) was 89.4%. For the same molecule, the growth at 10 µM (SK-MEL-2) was 86%, the growth at 10 µM (UACC-62) was 57.8% and the growth at 10 µM (SF-539) was 92%. It also gave a growth at 10 µM (TK-10) of 101%, a growth at 10 µM (NCI-H460) of 91.8% and a growth at 10 µM (MCF7) of 78.8%. The growth at 10 µM (OVCAR-4) was 85.7%, the growth at 10 µM (LOX IMVI) was 80.6% and the growth at 10 µM (Hs-578T) was 87.7%. The growth at 10 µM (T47D) was 75.2%, the growth at 10 µM (SF-268) was 92.9% and the growth at 10 µM (HCC 2998) was 105%. For the same molecule, the growth at 10 µM (EKVX) was 83.6%, the growth at 10 µM (SK-OV-3) was 92% and the growth at 10 µM (K562) was 74.3%. It also gave a growth at 10 µM (NCI-H23) of 87.7%, a growth at 10 µM (UO-31) of 53.9% and a growth at 10 µM (HL-60(TB)) of 101%. For the same molecule, the growth at 10 µM (HOP-92) was 88.8%, the growth at 10 µM (CCRF-CEM) was 83.7% and the growth at 10 µM (MDA-MB-231) was 77.6%. The growth at 10 µM (DU-145) was 105%, the growth at 10 µM (A549) was 84.9% and the growth at 10 µM (NCI-H226) was 87%. The growth at 10 µM (OVCAR-3) was 96.6% and the growth at 10 µM (SR) was 113%.
